Measurements published in patent US10822664B2, “Sequence-specific detection and phenotype determination” (priority 2015, dated 2020).

What was measured:
[1] = tested on: E. coli 1289018, 1289023, 1289027, and 1289011; assay: CRISPR/Cas9 cell-reporter AST assay; type: cell-based
Text: Enterobacteriaceae cell reporters as described in PCT/US2014/026536, Example 1 are designed with reporter plasmids that also carry single-guide[14] CRISPR/Cas9 systems with CRISPR loci that carry sequences targeting blaNDM-1 and blaSHV-18 genes (Table 1, SEQ ID NOs 11 & 13) a carbapenem resistance and extended β-lactam resistance gene, respectively. The reporter plasmid pGWP10001 is modified to include the cas9 gene, tracrRNA under the control of the PL(tetO-1) promoter, and a CRISPR cloning site, and CRISPR loci are designed to target the blaNDM-1 (SEQ ID NO 4) and blaSHV-18 (SEQ ID NO 5) genes and each are cloned into pGWP10001/CRISPR/Cas9 vectors to generate reporter plasmids that simultaneously target the blaNDM-1 and blaSHV-18 genes.
The vectors are used to generate non-replicative transduction particles carrying each plasmid and these are employed in a reporter system for determining the mechanism responsible to β-lactam non-susceptibility. Briefly, cultures of E. coli 1289018 (blaNDM-1, blaSHV-18-negative), 1289023 (blaNDM-1-positive), 1289027 (blaSHV-positive), and 1289011 (blaVIM-positive) are prepared and used to inoculate wells of a microwell plate containing 50 μL of LB with 50 μL of inoculum such that each well receives 10^4 CFU of each strain of bacteria. To these wells 100 μL of the following is added: a set of wells contain 5 μg/mL of meropenem and blaNDM-1-targetting NRTP, another set of wells contain 5 μg/mL of meropenem and blaSHV-18-NRTP, another set of wells contain 5 μg/mL of ceftazidime and blaNDM-1-targetting NRTP, and another set of wells contain 5 μg/mL of ceftazidime and blaSHV-18-NRTP. The samples are then incubated at 30° C. for 2 hours and then the samples are assayed for luminescence as described in Example 1.

[2] = tested on: E. coli 1289011, 1289012, 1289014, and 1289018; assay: AST meropenem/peptide-PNA disk diffusion testing; type: cell-based; details: for meropenem disk diffusion result: 10 μg meropenem disk, FIG. 4; for zone diameter compared to that of meropenem alone: 10 μg meropenem disk including peptide-PNA
Procedure: Disk diffusion testing is conducted following CLSI-M02 (12) and interpreted following M100-S22 (13). Briefly, for testing each bacterium for susceptibility to meropenem, a Mueller-Hinton agar (MHA) plates are inoculated using a sterile cotton swab dipped into a suspension of a culture of bacteria at a 0.5 McFarland standard such that the entire surface of the MHA is covered. A 10 μg meropenem disk is applied to the surface of the inoculated plate and the plate is incubated at 35° C. in ambient air for 16 to 18 hours. The strain of bacteria is determined to be susceptible to meropenem if the diameter of the zone of inhibition around the meropenem disk is ≥23 mm and resistant to meropenem if the zone diameter is ≤19 mm.
The second row of FIG. 4 depicts the typical meropenem disk diffusion results for the E. coli strains where 1289011, 1289012, and 1289014 are CRE and 1289018 is CSE.
To determine the specific mechanism linked to the meropenem-resistant phenotype, disk diffusion testing is conducted with 10 μg meropenem disks including blaKPC-3- and blaNDM-1-peptide-PNA. If the peptide-PNA inhibits the specific carbapenemase linked to the meropenem resistance in the E. coli strain, then the zone diameter observed will be […] when compared to the zone diameter of the strain when exposed to a disk containing only meropenem.

[3] = tested on: E. coli 1289011, 1289012, 1289014, and 1289018; assay: Peptide-PNA cell-reporter AST assay (Enterobacteriaceae reporter); type: cell-based
Procedure: In this example, the AST technique described in Example 2 is extended to AST testing based on cell-reporter assays. An Enterobacteriaceae cell reporter as described in PCT/US2014/026536, Example 1 is employed and the assay is run as follows. Briefly, cultures of E. coli 1289011, 1289012, 1289014, and 1289018 are prepared and used to inoculate wells of a microwell plate containing 50 μL of LB with 50 μL of inoculum such that each well receives 10^4 CFU of each strain of bacteria. A set of wells contain no additional additives, another set of wells contain 5 μg/mL of meropenem, another set of wells contain 5 μg/mL of meropenem and blaKPC-3-peptide-PNA, another set of wells contain 5 μg/mL of meropenem and blaNDM-1-peptide-PNA, and another two set of wells contain only blaKPC-3 or blaNDM-1 peptide-PNA, respectively. All wells also receive 100 μL of the Enterobacteriaceae reporter. The samples are then incubated at 30° C. for 2 hours and then the samples are assayed for luminescence as described in Example 1.

Enterococcus spp. = assay: VRE cell-reporter assay (Enterococcus reporter); type: cell-based, E. faecalis, E. faecium, E. casseliflavus; details: 5 μg/mL vancomycin, FIG. 7 column 2
Text: In this example an Enterococcus cell reporter is employed in combination with vancomycin and antisense molecules targeting vanC-2 gene expression. The assay allows for the detection of VRE and discrimination from vancomycin-sensitive Enterococcus (VSE) and Enterococcus expressing the vanC-2 gene and not the vanA or vanB genes. The Enterococcus reporter is designed to cause Enterococcus spp. to produce a detectable signal. A Peptide-PNA is designed to target vanC-2 transcripts.
Briefly, cultures of VSE E. faecalis 1259012, vanA-positive VRE E. faecalis 1259016, VSE E. faecium 1269011, vanB-positive VRE E. faecium 1269014, and vanC-2-positive vancomycin non-susceptible E. casseliflavus 1279015 are prepared and used to inoculate wells of a microwell plate containing 50 μL of LB with 50 μL of inoculum such that each well receives 10^4 CFU of each strain of bacteria. A set of wells contains no additional additives, another set of wells contains 5 μg/mL of vancomycin, and another set of wells contains 5 μg/mL of vancomycin and vanC-2-peptide-PNA. All wells also receive 100 μL of the Enterococcus reporter. The samples are then incubated at 37° C. for 2 hours and then the samples are assayed for luminescence as described in Example 1.

E. coli [4] = assay: Effect of murA PNA on growth (OD600) of E. coli; type: cell-based; details: murA PNA 4.5 μM in LB; OD600 over 8 hours; FIG. 1
Procedure: (§1) Isolates of E. coli and K. pneumoniae were grown overnight in LB at 37° C. and sub-cultured the next day at a 1:100 dilution into fresh LB and grown to an optical density at 600 nm (OD600) of 0.2. Inoculums of each strain of approximately 10^4 CFU of each species of bacteria were added to separate wells of a microplate each containing 50 μL of LB or LB with murA PNA at a final concentration of 4.5 μM. OD600 readings were measured over a period of 8 hours to assess growth of PNA-treated and PNA-untreated cells.

E. coli [5] = assay: Enterobacteriaceae luminescent-reporter NRTP assay with murA PNA, E. coli; type: cell-based; details: murA PNA 4.5 μM, 30° C. for 2 hours, FIG. 3
Procedure: (§2) Isolates of E. coli and K. pneumoniae were grown overnight in LB at 37° C. and sub-cultured the next day at a 1:100 dilution into fresh LB and grown to an OD600 of 0.2. Inoculums of each strain of approximately 10^4 CFU of each species of bacteria were added to separate wells of a microplate each containing 50 μL of LB or LB with murA PNA at a final concentration of 4.5 μM. All wells subsequently received 100 uL of an Enterobacteriaceae luminescent-reporter non-replicative transduction particle as described in PCT/US2014/026536, Example 1 and the samples were incubated at 30° C. for 2 hours. After the incubation period, the plates were assayed for luminescence using a Molecular Devices SpectraMax L microplate luminometer in which a solution of tridecanal was injected into each well as luminescence readings were taken.

K. pneumoniae [6] = assay: Effect of murA PNA on growth (OD600) of K. pneumoniae; type: cell-based; details: murA PNA 4.5 μM in LB; OD600 over 8 hours; FIG. 2
Procedure: as §1

K. pneumoniae [7] = assay: Enterobacteriaceae luminescent-reporter NRTP assay with murA PNA, K. pneumoniae; type: cell-based; details: murA PNA 4.5 μM, 30° C. for 2 hours, FIG. 3
Procedure: as §2

[8] = E. coli 1289018, 5 μg/mL β-lactam, regardless of which NRTP, FIG. 6 row 1
[9] = E. coli 1289011, 5 μg/mL meropenem and peptide-PNA
[10] = E. coli 1289012, 5 μg/mL meropenem and peptide-PNA
[11] = E. coli 1289014, 5 μg/mL meropenem and peptide-PNA

Row | Compound | inhibition in reporter assay [1, 8] | zone diameter compared to that of meropenem alone ([2]; E. coli 1289011) | zone diameter compared to that of meropenem alone ([2]; E. coli 1289012) | zone diameter compared to that of meropenem alone ([2]; E. coli 1289014) | reporter assay signal [3, 9] | reporter assay signal [3, 10] | reporter assay signal [3, 11] | further results
1 | CC(C)(O/N=C(\C(=O)N[C@@H]1C(=O)N2C(C(=O)[O-])=C(C[n+]3ccccc3)CS[C@H]12)c1csc(N)n1)C(=O)O [ceftazidime] | inhibited |  |  |  |  |  |  | 
2 | C[C@@H](O)[C@H]1C(=O)N2C(C(=O)O)=C(S[C@@H]3CN[C@H](C(=O)N(C)C)C3)[C@H](C)[C@H]12 [meropenem, reference compound] | inhibited |  |  |  |  |  |  | meropenem disk diffusion result ([2]; E. coli 1289011): CRE; meropenem disk diffusion result ([2]; E. coli 1289012): CRE; meropenem disk diffusion result ([2]; E. coli 1289014): CRE; meropenem disk diffusion result ([2]; E. coli 1289018): CSE; reporter assay signal ([3]; 5 μg/mL meropenem, all E. coli strains except 1289018, FIG. 5 column 2): continue to give a positive signal; inhibition in reporter assay ([1]; E. coli 1289027 (blaSHV-positive), 5 μg/mL meropenem, FIG. 6 row 3): inhibited
3 | CN[C@H](CC(C)C)C(=O)N[C@H]1C(=O)N[C@@H](CC(N)=O)C(=O)N[C@H]2C(=O)N[C@H]3C(=O)N[C@H](C(=O)N[C@H](C(=O)O)c4cc(O)cc(O)c4-c4cc3ccc4O)[C@H](O)c3ccc(c(Cl)c3)Oc3cc2cc(c3O[C@@H]2O[C@H](CO)[C@@H](O)[C@H](O)[C@H]2O[C@H]2C[C@](C)(N)[C@H](O)[C@H](C)O2)Oc2ccc(cc2Cl)[C@H]1O [vancomycin] |  |  |  |  |  |  |  | reporter assay signal (Enterococcus spp.; strains expressing a van gene): continue to give a positive signal; reporter assay signal (Enterococcus spp.; strains not carrying a van gene): do not
4 | KFFKFFKFFK-eg-ccatttagtt (CCATTTAGTT; all peptide nucleic acid (PNA); further chemistry not fully specified) [murA PNA] |  |  |  |  |  |  |  | growth of E. coli (E. coli [4]): compromised; luminescence signal produced by E. coli (E. coli [5]): compromised; growth of K. pneumoniae (K. pneumoniae [6]): not compromised; luminescence signal produced by K. pneumoniae (K. pneumoniae [7]): does not inhibit signal production
5 | blaKPC-3 peptide-PNA: PNA (SEQ ID NO 2) targeting the TIR of blaKPC-3, conjugated to the peptide KFFKFFKFFK (TCAACGATAT; all peptide nucleic acid (PNA); further chemistry not fully specified) |  | not reduced | reduced | not reduced | continues to produce a positive signal | no longer produces a positive signal | continues to produce a positive signal | 
6 | blaNDM-1 peptide-PNA: PNA (SEQ ID NO 3) targeting the TIR of blaNDM-1, conjugated to the peptide KFFKFFKFFK (TCAAGTTTTCC; all peptide nucleic acid (PNA); further chemistry not fully specified) |  | not reduced | not reduced | reduced | continues to produce a positive signal | continues to produce a positive signal | no longer produces a positive signal | 
